Reference: PubChem BioAssay (NCI)
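All cell lines were grown in 96-well plates and treated with compound for 48 hours. TGI marks complete inhibition of growth.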 Where a SMILES comes first, the peptide text is derived from it.

Tests used:
Assay in all cases: NCI anticancer screen, dose series, 48 h
[1] = system: SF-295 CNS
[2] = system: U251 CNS
[3] = system: MDA-N
[4] = system: OVCAR-3 ovarian
[5] = system: DU-145 prostate
[6] = system: OVCAR-4 ovarian
[7] = system: HCT-116 colon
[8] = system: UACC-62 melanoma
[9] = system: HCC-2998 colon
[10] = system: MALME-3M melanoma
[11] = system: LOX IMVI melanoma
[12] = system: OVCAR-8 ovarian
[13] = system: MDA-MB-435
[14] = system: T-47D breast
[15] = system: SK-MEL-2 melanoma
[16] = system: UACC-257 melanoma
[17] = system: ACHN renal
[18] = system: RPMI-8226 leukemia
[19] = system: PC-3 prostate
[20] = system: HCT-15 colon
[21] = system: COLO 205 colon
[22] = system: M14 melanoma
[23] = system: NCI/ADR-RES ovarian
[24] = system: OVCAR-5 ovarian
[25] = system: CAKI-1 renal
[26] = system: K-562 leukemia
[27] = system: SK-MEL-5 melanoma
[28] = system: HOP-92 NSCLC
[29] = system: NCI-H23 lung
[30] = system: SNB-75 CNS
[31] = system: SR leukemia
[32] = system: SN12C renal
[33] = system: IGROV1 ovarian
[34] = system: SF-539 CNS
[35] = system: MOLT-4 leukemia
[36] = system: KM12 colon
[37] = system: SNB-19 CNS
[38] = system: NCI-H460 lung
[39] = system: A549 NSCLC
[40] = system: NCI-H226 lung
[41] = system: A498 renal
[42] = system: CCRF-CEM leukemia
[43] = system: 786-0 renal
[44] = system: NCI-H522 lung
[45] = system: SK-OV-3 ovarian
[46] = system: MCF7 breast
[47] = system: HL-60(TB) leukemia
[48] = system: HOP-62 NSCLC
[49] = system: BT-549 breast
[50] = system: UO-31 renal
[51] = system: MDA-MB-231 breast
[52] = system: HT29 colon
[53] = system: RXF 393 renal
[54] = system: SK-MEL-28 melanoma
[55] = system: SF-268 CNS
[56] = system: SW-620 colon
[57] = system: EKVX NSCLC
[58] = system: TK-10 renal
[59] = system: HS 578T breast

SMILES: CC(=O)NC(CO)C(=O)NC(Cc1ccc(O)cc1)C(=O)NCC(N)=O (stereo not drawn) (Ac-Ser-Tyr-Gly-NH2; configuration not given here)
- TGI [1]: > 100 µM
- TGI [2]: > 100 µM
- TGI [3]: > 100 µM
- TGI [4]: > 100 µM
- TGI [5]: > 100 µM
- TGI [6]: > 100 µM
- TGI [7]: > 100 µM
- TGI [8]: > 100 µM
- TGI [9]: > 100 µM
- TGI [10]: > 100 µM
- TGI [11]: > 100 µM
- TGI [12]: > 100 µM
- TGI [13]: > 100 µM
- TGI [14]: > 100 µM
- TGI [15]: > 100 µM
- TGI [16]: > 100 µM
- TGI [17]: > 100 µM
- TGI [18]: > 100 µM
- TGI [19]: > 100 µM
- TGI [20]: > 100 µM
- TGI [21]: > 100 µM
- TGI [22]: > 100 µM
- TGI [23]: > 100 µM
- TGI [24]: > 100 µM
- TGI [25]: > 100 µM
- TGI [26]: > 100 µM
- TGI [27]: > 100 µM
- TGI [28]: > 100 µM
- TGI [29]: > 100 µM
- TGI [30]: > 100 µM
- TGI [31]: > 100 µM
- TGI [32]: > 100 µM
- TGI [33]: > 100 µM
- TGI [34]: > 100 µM
- TGI [35]: > 100 µM
- TGI [36]: > 100 µM
- TGI [37]: > 100 µM
- TGI [38]: > 100 µM
- TGI [39]: > 100 µM
- TGI [40]: > 100 µM
- TGI [41]: > 100 µM
- TGI [42]: > 100 µM
- TGI [43]: > 100 µM
- TGI [44]: > 100 µM
- TGI [45]: > 100 µM
- TGI [46]: > 100 µM
- TGI [47]: > 100 µM
- TGI [48]: > 100 µM
- TGI [49]: > 100 µM
- TGI [50]: > 100 µM
- TGI [51]: > 100 µM
- TGI [52]: > 100 µM
- TGI [53]: > 100 µM
- TGI [54]: > 100 µM
- TGI [55]: > 100 µM
- TGI [56]: > 100 µM
- TGI [57]: > 100 µM
- TGI [58]: > 100 µM

SMILES: Cn1nc(C(=O)N2CC(CCl)c3c2cc([N+](=O)[O-])c2ccccc32)cc1NC(=O)Nc1cc(C(=O)N2CC(CCl)c3c2cc([N+](=O)[O-])c2ccccc32)nn1C (stereo not drawn)
- TGI [1]: > 100 µM
- TGI [2]: > 100 µM
- TGI [3]: > 100 µM
- TGI [4]: > 100 µM
- TGI [5]: > 100 µM
- TGI [6]: > 100 µM
- TGI [7]: > 100 µM
- TGI [8]: > 100 µM
- TGI [9]: > 100 µM
- TGI [10]: > 100 µM
- TGI [13]: > 100 µM
- TGI [14]: > 100 µM
- TGI [15]: > 100 µM
- TGI [16]: > 100 µM
- TGI [17]: > 100 µM
- TGI [18]: > 100 µM
- TGI [19]: > 100 µM
- TGI [20]: > 100 µM
- TGI [21]: > 100 µM
- TGI [22]: > 100 µM
- TGI [23]: > 100 µM
- TGI [24]: > 100 µM
- TGI [25]: > 100 µM
- TGI [26]: > 100 µM
- TGI [27]: > 100 µM
- TGI [28]: > 100 µM
- TGI [29]: > 100 µM
- TGI [30]: > 100 µM
- TGI [32]: > 100 µM
- TGI [34]: 70.2 µM
- TGI [35]: > 100 µM
- TGI [36]: > 100 µM
- TGI [37]: > 100 µM
- TGI [38]: > 100 µM
- TGI [39]: > 100 µM
- TGI [40]: > 100 µM
- TGI [41]: > 100 µM
- TGI [43]: > 100 µM
- TGI [44]: > 100 µM
- TGI [45]: > 100 µM
- TGI [46]: > 100 µM
- TGI [48]: > 100 µM
- TGI [49]: > 100 µM
- TGI [50]: > 100 µM
- TGI [51]: > 100 µM
- TGI [54]: > 100 µM
- TGI [55]: > 100 µM
- TGI [57]: > 100 µM
- TGI [58]: > 100 µM

SMILES: O=C1/C(=C/c2ccc(Cl)cc2)Sc2scc(-c3cccc([N+](=O)[O-])c3)[n+]21
- TGI [1]: 17.9 µM
- TGI [2]: 23.6 µM
- TGI [3]: 13.8 µM
- TGI [4]: 36 µM
- TGI [5]: > 33.3 µM
- TGI [6]: 28.1 µM
- TGI [8]: 13.5 µM
- TGI [9]: 10.5 µM
- TGI [13]: 13.2 µM
- TGI [14]: > 100 µM
- TGI [15]: 29.1 µM
- TGI [16]: 10.9 µM
- TGI [17]: 6.27 µM
- TGI [18]: 3.99 µM
- TGI [19]: 20.6 µM
- TGI [20]: 4.66 µM
- TGI [21]: 4.48 µM
- TGI [22]: > 35 µM
- TGI [24]: 51.3 µM
- TGI [25]: 6.85 µM
- TGI [26]: 2.24 µM
- TGI [27]: 12.9 µM
- TGI [28]: 5.39 µM
- TGI [29]: 12.9 µM
- TGI [30]: 5.49 µM
- TGI [31]: 2.42 µM
- TGI [32]: 11.9 µM
- TGI [33]: 7.48 µM
- TGI [34]: 8.11 µM
- TGI [35]: 3.9 µM
- TGI [36]: 13.1 µM
- TGI [37]: 38.9 µM
- TGI [38]: 20.3 µM
- TGI [39]: > 68.5 µM
- TGI [40]: > 100 µM
- TGI [42]: 1.18 µM
- TGI [43]: 6.49 µM
- TGI [44]: 2.01 µM
- TGI [45]: 23.6 µM
- TGI [46]: > 40.7 µM
- TGI [48]: > 69.7 µM
- TGI [59]: 43.6 µM
- TGI [49]: 6.37 µM
- TGI [50]: 15.5 µM
- TGI [51]: > 32.1 µM
- TGI [52]: > 45 µM
- TGI [53]: 7.97 µM
- TGI [54]: 10.2 µM
- TGI [55]: 14.6 µM
- TGI [56]: 3.82 µM
- TGI [57]: 13.9 µM
- TGI [58]: 5.07 µM

SMILES: COC1C(OC(N)=O)C(O)C(Oc2ccc3c(O)c(NC(=O)c4ccc(O)c(CC=C(C)C)c4)c(=O)oc3c2C)OC1(C)C (stereo not drawn)
- TGI [2]: > 100 µM
- TGI [3]: > 100 µM
- TGI [4]: > 100 µM
- TGI [5]: > 100 µM
- TGI [7]: > 100 µM
- TGI [8]: > 100 µM
- TGI [9]: > 100 µM
- TGI [10]: > 100 µM
- TGI [12]: > 100 µM
- TGI [13]: > 100 µM
- TGI [14]: > 100 µM
- TGI [15]: > 100 µM
- TGI [16]: > 100 µM
- TGI [17]: > 100 µM
- TGI [18]: > 100 µM
- TGI [19]: > 100 µM
- TGI [20]: > 100 µM
- TGI [21]: > 100 µM
- TGI [22]: > 100 µM
- TGI [23]: > 100 µM
- TGI [24]: > 100 µM
- TGI [25]: > 100 µM
- TGI [26]: > 100 µM
- TGI [27]: > 100 µM
- TGI [30]: > 100 µM
- TGI [31]: > 100 µM
- TGI [32]: > 100 µM
- TGI [33]: > 100 µM
- TGI [34]: > 100 µM
- TGI [35]: > 100 µM
- TGI [36]: > 100 µM
- TGI [37]: > 100 µM
- TGI [38]: > 100 µM
- TGI [39]: > 100 µM
- TGI [41]: > 100 µM
- TGI [42]: > 100 µM
- TGI [43]: > 100 µM
- TGI [45]: > 100 µM
- TGI [46]: > 100 µM
- TGI [48]: > 100 µM
- TGI [49]: > 100 µM
- TGI [50]: > 100 µM
- TGI [51]: > 100 µM
- TGI [52]: > 100 µM
- TGI [53]: > 100 µM
- TGI [54]: > 100 µM
- TGI [55]: > 100 µM
- TGI [56]: > 100 µM
- TGI [57]: > 100 µM
